Measured values reported in ChEMBL document CHEMBL1201862, “PubChem BioAssay data set” (2004).
Activity calls are given as the source filed them.

Experiments:
[1] = NIH-3T3 fibroblast cytotoxicity, dose response, cytotoxicity control, cell-based, fluorescence, Alamar Blue, secondary assay (AID 2327); format: functional;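 also: NIH-3T3 mouse fibroblasts cultured with fluconazole at 8 µg/mL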
[2] = inhibitors of firefly luciferase expression or activity, dose response, H4 neuroglioma cells, luminescence (AID 1990); format: functional, cell-based
[3] = insulin promoter down-regulators in MIN6 cells, imaging, high-content screening, mouse beta cells (AID 1628); format: functional
[4] = test system: BJ; assay: cytotoxicity toward BJ-TERT fibroblasts, dose response, cell-based, RAS-independent, luminescence (AID 1933); format: functional; conditions: Homo sapiens
[5] = Luminescence Cell-Based Dose Response HTS to Identify Inhibitors of 5'UTR Stem-Loop Driven Prion Protein mRNA Translation in H4 Neuroglioblastoma Cells. [Related pubchem assays: 1827 (Project Summary), 1813 (Primary HTS)]; format: functional
[6] = cytotoxicity in MIN6 insulinoma cells, dose response, cytotoxicity control, cell-based, mouse insulinoma (AID 2122); format: functional;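 also: confirmatory high-throughput counterscreen run to flag cytotoxic compounds; mouse MIN-6 beta cells carrying an insulin promoter eGFP reporter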
[7] = inhibitors of SNCA 5'UTR-driven reporter translation, confirmation, H4 neuroglioma cells, luminescence (AID 1988); format: functional, cell-based
[8] = test system: BJ; assay: cells; format: functional, cell-based; conditions: Homo sapiens
[9] = C. albicans growth with fluconazole, confirmation, fluorescence, retest (AID 2467); format: functional, cell-based
[10] = cytotoxicity in HPDE-C7 cells, cell-based, fluorescence, HTS (AID 430); format: functional; conditions: Homo sapiens
[11] = Luminescence-based dose response cell-based high throughput screening assay for cytotoxic compounds using the IEC-6 intestinal epithelial cell line. [Related pubchem assays: 1858 (Summary AID.), 1825 (Counterscreen.), 1907 (Confirmation screen.)]; format: functional
[12] = cytotoxicity in KRAS-transformed pancreatic duct cells, primary screen, cell-based, fluorescence, HTS (AID 431); format: functional; conditions: Homo sapiens;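 also: cell line used: HPDE-C7K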
[13] = test system: BJ; assay: cytotoxicity toward BJ-TERT-LT-ST fibroblasts, dose response, cell-based, RAS-independent, luminescence (AID 1935); format: functional; conditions: Homo sapiens;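 also: BJ fibroblasts immortalized with TERT plus LT and ST oncogenes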
[14] = cytotoxicity toward DRD oncogenic fibroblasts, dose response, cell-based, non-viral oncogenic, luminescence (AID 1934); format: functional; conditions: Homo sapiens
[15] = biological target: Intestinal-type alkaline phosphatase (Mus musculus, UniProt P24822); assay: PubChem AID 488874; format: functional
[16] = THP-1 cell cytotoxicity, dose response, cytotoxicity control for non-replicating M. tuberculosis project (AID 489025); format: functional
[17] = HepG2 cell cytotoxicity, dose response, cytotoxicity control for non-replicating M. tuberculosis project (AID 489018); format: functional; conditions: Mycobacterium tuberculosis
[18] = biological target: T1, Intestinal-type alkaline phosphatase (Homo sapiens, UniProt P09923); assay: human intestinal alkaline phosphatase activators, dose response, biochemical, luminescence, uHTS hits (AID 463120); format: functional
[19] = Vero E6 cell cytotoxicity, dose response, cytotoxicity control for non-replicating M. tuberculosis project, secondary assay (AID 492998); format: functional, VeroE6; conditions: Vero C1008
[20] = cytotoxicity in HEK-293T cells, dose response, cytotoxicity control for TCR NF-kB inhibitor project, luminescence, T-cell screen hits (AID 489026); format: functional, cell-based;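 also: cells exposed to compound about 14 hours before the viability readout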
[21] = biological target: Nonstructural protein 1 (Influenza A virus, UniProt Q194T2); format: functional, Influenza A virus (A/California/07/2009(H1N1))
[22] = biological target: T1, Intestinal-type alkaline phosphatase; assay: human IAP activators, dose response, biochemical, luminescent, uHTS hits, set 2 (AID 488817); format: functional;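 also: potency of activators that raise enzyme activity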
[23] = biological target: T2, Alkaline phosphatase, tissue-nonspecific isozyme (Homo sapiens, UniProt P05186); assay: TNAP enzyme activators, dose response, selectivity assay for human IAP activator project, biochemical, TNAP isozyme, human IAP uHTS hits (AID 488886); format: functional;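 also: potency of compounds raising TNAP activity as a selectivity check on IAP activators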
T2 sequence (P05186 whole entry): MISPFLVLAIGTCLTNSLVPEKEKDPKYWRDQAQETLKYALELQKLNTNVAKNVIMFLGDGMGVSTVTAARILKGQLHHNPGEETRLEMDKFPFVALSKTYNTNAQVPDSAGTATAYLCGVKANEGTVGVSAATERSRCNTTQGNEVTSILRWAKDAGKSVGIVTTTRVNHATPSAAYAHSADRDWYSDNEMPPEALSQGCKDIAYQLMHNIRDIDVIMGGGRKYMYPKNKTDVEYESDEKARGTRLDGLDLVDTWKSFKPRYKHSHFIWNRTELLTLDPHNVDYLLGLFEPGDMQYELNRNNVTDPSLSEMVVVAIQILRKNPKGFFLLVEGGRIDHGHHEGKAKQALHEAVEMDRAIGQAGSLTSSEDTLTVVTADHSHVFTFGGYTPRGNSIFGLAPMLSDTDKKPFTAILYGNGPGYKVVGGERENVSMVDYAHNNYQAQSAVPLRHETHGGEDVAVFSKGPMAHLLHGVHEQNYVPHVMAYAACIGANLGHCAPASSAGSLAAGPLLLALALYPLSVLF

[24] = cells; format: functional
[25] = test system: HEK293; assay: inhibitors of LMP1-driven NF-kB reporter, dose response, cell-based, HEK293, luciferase, cherry-pick (AID 588343); format: functional; conditions: Homo sapiens
[26] = biological target: Heat shock protein HSP 90-alpha (Homo sapiens, UniProt P07900); format: functional, organism-based
[27] = test system: INS1; assay: beta cell apoptosis inhibitors, cytokine rescue, dose response, luminescence, retest (AID 449756); format: functional, cell-based; conditions: Rattus norvegicus;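 also: cell death triggered by IL-1 beta plus TNF-alpha plus IFN-gamma mixture; protective hits raise ATP signal compared with cytokine alone wells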
[28] = Luminescence Cell-Based Dose Retest to Confirm Inhibitors of Cancer Stem Cells. [Related pubchem assays (depositor defined):AID2717, AID2721]; format: functional; conditions: Homo sapiens
[29] = biological target: Keap1/Nrf2 (Homo sapiens, UniProt Q14145); assay: Keap1-Nrf2 protein-protein interaction inhibitors, dose response, biochemical, fluorescence polarization, cherry-picked samples (AID 588683)
[30] = biological target: Photoreceptor-specific nuclear receptor (Homo sapiens, UniProt Q9Y5X4); format: functional, cell-based;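 also: CHO-S cells with Gal4-NCOR and VP16-NR2E3 two-hybrid luciferase reporter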
[31] = biological target: Protein S100-A4 (Homo sapiens, UniProt P26447); assay: S100A4-myosin IIA binding inhibitor potency, dose response, biochemical, fluorescence polarization, cherry-picked hits (AID 687001); format: functional
[32] = biological target: Paired box protein Pax-8 (Homo sapiens, UniProt Q06710); assay: inhibitors of PAX8-driven TPO luciferase reporter, dose response, RMG-I cells, cherry-pick (AID 687027); format: functional, cell-based;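 also: luciferase reporter driven by Pax8 target thyroperoxidase promoter measured by SteadyGlo luminescence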
Sequence of Paired box protein Pax-8 (Q06710 whole entry): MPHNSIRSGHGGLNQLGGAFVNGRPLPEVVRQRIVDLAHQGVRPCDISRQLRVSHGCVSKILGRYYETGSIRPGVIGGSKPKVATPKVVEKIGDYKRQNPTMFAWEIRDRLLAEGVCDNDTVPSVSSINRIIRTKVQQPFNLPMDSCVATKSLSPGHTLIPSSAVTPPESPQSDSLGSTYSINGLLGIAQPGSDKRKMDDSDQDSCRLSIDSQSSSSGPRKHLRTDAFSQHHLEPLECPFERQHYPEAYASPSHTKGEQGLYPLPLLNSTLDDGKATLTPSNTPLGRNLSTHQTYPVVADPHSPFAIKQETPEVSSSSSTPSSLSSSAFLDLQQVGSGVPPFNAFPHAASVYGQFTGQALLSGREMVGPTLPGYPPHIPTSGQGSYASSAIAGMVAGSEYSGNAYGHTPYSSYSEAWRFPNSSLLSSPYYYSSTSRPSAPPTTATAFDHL

T1 sequence (P09923 whole entry): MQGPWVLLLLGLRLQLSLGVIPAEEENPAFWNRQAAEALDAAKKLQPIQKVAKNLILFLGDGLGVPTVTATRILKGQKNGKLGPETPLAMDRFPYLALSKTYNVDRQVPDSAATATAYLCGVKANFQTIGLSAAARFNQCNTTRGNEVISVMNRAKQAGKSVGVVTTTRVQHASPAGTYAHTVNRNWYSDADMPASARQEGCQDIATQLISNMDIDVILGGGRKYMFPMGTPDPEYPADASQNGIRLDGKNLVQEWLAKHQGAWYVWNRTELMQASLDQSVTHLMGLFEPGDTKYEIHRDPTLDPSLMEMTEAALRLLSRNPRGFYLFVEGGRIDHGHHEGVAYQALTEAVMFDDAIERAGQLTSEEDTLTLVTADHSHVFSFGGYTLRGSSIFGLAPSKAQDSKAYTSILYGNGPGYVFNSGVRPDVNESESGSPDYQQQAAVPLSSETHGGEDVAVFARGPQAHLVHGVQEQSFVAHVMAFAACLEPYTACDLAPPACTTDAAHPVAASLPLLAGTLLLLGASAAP
Sequence of Intestinal-type alkaline phosphatase (Mus musculus, UniProt P24822) (P24822 whole entry): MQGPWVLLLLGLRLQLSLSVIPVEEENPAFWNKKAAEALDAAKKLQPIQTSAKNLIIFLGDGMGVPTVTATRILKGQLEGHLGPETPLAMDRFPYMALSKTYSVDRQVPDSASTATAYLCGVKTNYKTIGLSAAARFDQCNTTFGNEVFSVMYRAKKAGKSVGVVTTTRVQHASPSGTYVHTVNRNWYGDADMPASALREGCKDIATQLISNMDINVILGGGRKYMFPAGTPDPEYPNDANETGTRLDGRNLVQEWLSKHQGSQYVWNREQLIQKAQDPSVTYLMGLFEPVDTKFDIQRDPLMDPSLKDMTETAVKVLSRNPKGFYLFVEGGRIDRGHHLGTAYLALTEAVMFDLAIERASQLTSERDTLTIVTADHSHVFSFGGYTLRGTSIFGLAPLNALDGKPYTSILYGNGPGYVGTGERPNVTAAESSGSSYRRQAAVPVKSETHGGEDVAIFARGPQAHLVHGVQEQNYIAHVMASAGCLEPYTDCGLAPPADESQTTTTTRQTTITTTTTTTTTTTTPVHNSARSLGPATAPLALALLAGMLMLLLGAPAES
Sequence of Photoreceptor-specific nuclear receptor (Q9Y5X4 whole entry, the tested form may be a part): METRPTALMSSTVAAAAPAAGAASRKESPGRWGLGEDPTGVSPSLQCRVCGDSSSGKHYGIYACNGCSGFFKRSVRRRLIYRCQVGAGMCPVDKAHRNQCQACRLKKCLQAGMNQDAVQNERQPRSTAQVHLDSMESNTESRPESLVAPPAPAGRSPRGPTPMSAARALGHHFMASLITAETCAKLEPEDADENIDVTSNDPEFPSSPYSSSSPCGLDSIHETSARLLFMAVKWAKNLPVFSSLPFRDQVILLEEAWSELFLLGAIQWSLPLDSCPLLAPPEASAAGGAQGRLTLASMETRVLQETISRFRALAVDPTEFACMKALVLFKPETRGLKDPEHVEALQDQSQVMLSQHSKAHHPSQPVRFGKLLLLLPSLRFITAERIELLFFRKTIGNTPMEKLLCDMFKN
Sequence of Protein S100-A4 (P26447 whole entry): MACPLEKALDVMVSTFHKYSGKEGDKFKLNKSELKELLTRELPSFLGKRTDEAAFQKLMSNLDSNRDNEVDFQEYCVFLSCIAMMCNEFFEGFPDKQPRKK
Sequence of Nonstructural protein 1 (Q194T2 whole entry): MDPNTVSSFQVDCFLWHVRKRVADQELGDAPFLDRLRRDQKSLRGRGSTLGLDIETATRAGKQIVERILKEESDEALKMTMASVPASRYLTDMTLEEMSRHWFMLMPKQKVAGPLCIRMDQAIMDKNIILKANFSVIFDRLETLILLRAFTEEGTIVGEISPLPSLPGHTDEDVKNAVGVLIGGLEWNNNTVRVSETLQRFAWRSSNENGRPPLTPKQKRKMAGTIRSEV
Sequence of Keap1/Nrf2 (Q16236 whole entry, the tested form may be a part): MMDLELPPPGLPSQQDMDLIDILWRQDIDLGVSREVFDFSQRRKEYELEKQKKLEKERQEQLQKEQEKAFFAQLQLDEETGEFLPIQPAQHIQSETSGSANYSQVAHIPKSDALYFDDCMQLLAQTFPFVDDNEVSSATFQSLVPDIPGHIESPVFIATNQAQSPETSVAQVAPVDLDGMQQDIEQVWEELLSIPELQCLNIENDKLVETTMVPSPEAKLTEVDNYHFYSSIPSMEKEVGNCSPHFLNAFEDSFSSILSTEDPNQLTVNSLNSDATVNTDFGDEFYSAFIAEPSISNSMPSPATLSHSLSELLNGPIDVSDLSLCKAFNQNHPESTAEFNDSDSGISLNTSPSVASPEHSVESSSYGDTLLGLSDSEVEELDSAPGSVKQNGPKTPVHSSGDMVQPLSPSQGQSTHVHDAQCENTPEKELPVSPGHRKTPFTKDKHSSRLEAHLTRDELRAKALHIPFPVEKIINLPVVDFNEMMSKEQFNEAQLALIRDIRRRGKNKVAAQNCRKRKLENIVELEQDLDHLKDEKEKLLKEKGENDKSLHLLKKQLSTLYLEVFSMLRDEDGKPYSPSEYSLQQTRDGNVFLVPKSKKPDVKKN
Sequence of Keap1/Nrf2 (Q14145 whole entry, the tested form may be a part): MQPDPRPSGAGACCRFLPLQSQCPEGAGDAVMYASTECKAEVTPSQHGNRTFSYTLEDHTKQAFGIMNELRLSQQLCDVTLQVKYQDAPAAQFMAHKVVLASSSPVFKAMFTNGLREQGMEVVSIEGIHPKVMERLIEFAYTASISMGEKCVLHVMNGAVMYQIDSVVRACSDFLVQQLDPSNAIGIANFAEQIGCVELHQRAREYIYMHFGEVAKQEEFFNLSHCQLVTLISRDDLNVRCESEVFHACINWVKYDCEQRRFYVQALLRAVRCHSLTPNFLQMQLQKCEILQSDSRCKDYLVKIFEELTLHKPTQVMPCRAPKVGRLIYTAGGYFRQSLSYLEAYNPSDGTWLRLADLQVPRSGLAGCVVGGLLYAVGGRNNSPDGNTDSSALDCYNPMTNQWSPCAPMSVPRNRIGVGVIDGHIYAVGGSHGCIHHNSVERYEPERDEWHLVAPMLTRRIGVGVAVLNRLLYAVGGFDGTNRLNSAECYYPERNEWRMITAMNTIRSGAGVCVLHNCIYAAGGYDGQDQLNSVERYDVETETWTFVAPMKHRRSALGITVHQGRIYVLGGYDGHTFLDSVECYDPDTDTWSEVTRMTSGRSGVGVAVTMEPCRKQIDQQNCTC

c1ccc(-c2cccc(-c3ccccn3)n2)nc1 [TERPYRIDINE]
EC50 [1]: 1320 nM (active)
EC50 [2]: < 100 nM (active)
IC50 [3]: 504 nM (active)
EC50 [4]: 11200 nM (active)
EC50 [5]: < 100 nM (active)
IC50 [6]: 716 nM (active)
EC50 [7]: < 100 nM (active)
EC50 [8]: 4870 nM (active)
EC50 [9]: 349 nM (active)
EC50 [10]: 4140 nM (active)
IC50 [11]: 483 nM (active)
EC50 [12]: 2540 nM (active)
EC50 [13]: 4320 nM (inconclusive)
EC50 [14]: 17100 nM (inconclusive)
IC50 [15]: > 100000 nM (inactive)
CC50 [16]: 210 nM (active)
CC50 [17]: > 20000 nM (active)
EC50 [18]: 16800 nM (active)
CC50 [19]: 1020 nM (active)
IC50 [20]: > 80000 nM (inactive)
IC50 [21]: 1840 nM (active)
EC50 [22]: 25300 nM (active)
EC50 [23]: 27500 nM (active)
IC50 [24]: 44900 nM (active)
AC50 [25]: 2110 nM (active)
AC50 [26]: 1350 nM (active)
AC50 [27]: < 195 nM (active)

O=C(Nc1ccon1)c1nc[nH]c1C(=O)NCc1ccccc1
IC50 [15]: 38800 nM (active)
AC50 [28]: 760 nM (active)
EC50 [18]: 14200 nM (active)
EC50 [22]: 13900 nM (active)
EC50 [23]: 16400 nM (active)

COc1cccc2c1C(=O)c1c(O)c3c(c(O)c1C2=O)CC(O)(C(C)=O)CC3OC1CC(N(C)C)C(O)C(C)O1 (configuration not stated)
AC50 [26]: 807 nM (active)
AC50 [29]: > 52000 nM (inactive)
IC50 [30]: 3820 nM (active)
AC50 [31]: 304 nM (active)
AC50 [32]: 1520 nM (active)
